According to ChEMBL document CHEMBL1201862, “PubChem BioAssay data set” (2004):
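48-hour exposure; five concentrations; linearly interpolated endpoints. GI50: concentration for 50% inhibition of growth.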 Activity calls are given as the source filed them. Rule as the data show it: active = GI50 up to about 1.1 µM and inactive = higher.

Columns and labels:
Assay in all cases: inhibition of tumour cell growth, NCI panel, 48 h
CAKI-1 = tested on: CAKI-1
NCI-H226 = tested on: NCI-H226
SNB-19 = tested on: SNB-19
MDA-N = tested on: MDA-N
OVCAR-8 = tested on: OVCAR-8
OVCAR-4 = tested on: OVCAR-4
SF-539 = tested on: SF-539
SR = tested on: SR
ACHN = tested on: ACHN
OVCAR-3 = tested on: OVCAR-3
SK-MEL-2 = tested on: SK-MEL-2
EKVX = tested on: EKVX
NCI-H460 = tested on: NCI-H460
UACC-62 = tested on: UACC-62
LOX IMVI = tested on: LOX IMVI
786-0 = tested on: 786-0
A549 = tested on: A549
OVCAR-5 = tested on: OVCAR-5
CCRF-CEM = tested on: CCRF-CEM

Measured: GI50

Nc1c(C(=O)Nc2ccc([As](=O)(O)O)cc2)cnc2nnnn12
inactive: CAKI-1 > 100 µM | NCI-H226 > 100 µM | SNB-19 > 100 µM | MDA-N > 100 µM | OVCAR-8 > 100 µM | OVCAR-4 > 100 µM | SF-539 > 100 µM | SR > 100 µM | ACHN > 100 µM | OVCAR-3 > 100 µM | SK-MEL-2 > 100 µM | EKVX > 100 µM | NCI-H460 > 100 µM | UACC-62 > 100 µM | LOX IMVI > 100 µM | 786-0 > 100 µM | A549 > 100 µM | OVCAR-5 > 100 µM | CCRF-CEM > 100 µM

CCOC(=O)CNC(=O)c1nc[nH]c1/N=N/N(C)C
inactive: CAKI-1 > 100 µM | NCI-H226 > 100 µM | SNB-19 > 100 µM | OVCAR-8 > 100 µM | OVCAR-4 > 100 µM | SF-539 > 100 µM | SR > 100 µM | ACHN > 100 µM | OVCAR-3 > 100 µM | SK-MEL-2 > 100 µM | EKVX > 100 µM | NCI-H460 > 100 µM | UACC-62 > 100 µM | LOX IMVI > 100 µM | 786-0 > 100 µM | A549 > 100 µM | OVCAR-5 > 100 µM | CCRF-CEM > 100 µM

CCOc1ccccc1NC(=O)CC(C(=O)OC)C(=O)C(=O)OC (stereo unspecified)
inactive: CAKI-1 > 100 µM | NCI-H226 > 100 µM | SNB-19 > 100 µM | OVCAR-8 > 100 µM | OVCAR-4 > 100 µM | SF-539 > 100 µM | SR > 100 µM | ACHN > 100 µM | OVCAR-3 > 100 µM | SK-MEL-2 > 100 µM | EKVX > 100 µM | NCI-H460 > 100 µM | UACC-62 > 100 µM | LOX IMVI > 100 µM | 786-0 > 100 µM | A549 > 100 µM | OVCAR-5 > 100 µM | CCRF-CEM > 100 µM

COc1ccc(OC)c2c(C(=O)O)c(Cc3ccccc3)ccc12
inactive: CAKI-1 > 100 µM | NCI-H226 > 100 µM | SNB-19 > 100 µM | OVCAR-8 > 100 µM | OVCAR-4 > 100 µM | SR > 100 µM | ACHN > 100 µM | OVCAR-3 > 100 µM | SK-MEL-2 > 100 µM | EKVX > 100 µM | NCI-H460 > 100 µM | UACC-62 > 100 µM | LOX IMVI > 100 µM | 786-0 > 100 µM | A549 > 100 µM | OVCAR-5 > 100 µM | CCRF-CEM > 10 µM

O=S(=O)(SCc1ccccc1)C(c1ccccc1)c1ccccc1
inactive: CAKI-1 31 µM | NCI-H226 22.5 µM | SNB-19 > 100 µM | OVCAR-8 19.8 µM | OVCAR-4 48.9 µM | SF-539 17.2 µM | SR 15.2 µM | ACHN 37.8 µM | OVCAR-3 29.1 µM | SK-MEL-2 39.1 µM | EKVX 60.3 µM | NCI-H460 37 µM | UACC-62 27.5 µM | LOX IMVI 30.4 µM | 786-0 31.6 µM | A549 32 µM | OVCAR-5 > 100 µM | CCRF-CEM 4.21 µM

COC1C=C(Nc2cccc(Cl)c2)C(=O)C1 (stereo unspecified)
inactive: CAKI-1 50.9 µM | NCI-H226 36.4 µM | SNB-19 64.3 µM | OVCAR-8 96.2 µM | OVCAR-4 > 100 µM | SF-539 58.2 µM | SR 58.3 µM | ACHN 60 µM | OVCAR-3 65.3 µM | SK-MEL-2 71 µM | EKVX 29.4 µM | NCI-H460 44.4 µM | UACC-62 60 µM | LOX IMVI > 100 µM | 786-0 > 100 µM | A549 18.5 µM | OVCAR-5 47.4 µM | CCRF-CEM 63.1 µM

CN1C(=O)[C@](C)(Cc2ccc(F)cc2)N(C(=O)OC(C)(C)C)[C@@H]1C(C)(C)C
inactive: CAKI-1 36.4 µM | NCI-H226 23.6 µM | SNB-19 > 100 µM | MDA-N 37.4 µM | OVCAR-8 28.8 µM | OVCAR-4 43.1 µM | SF-539 41.2 µM | SR 21.2 µM | ACHN 37.7 µM | OVCAR-3 31.5 µM | SK-MEL-2 31.3 µM | EKVX 47.1 µM | NCI-H460 31.5 µM | UACC-62 32 µM | LOX IMVI 21.6 µM | 786-0 29.3 µM | A549 42.4 µM | OVCAR-5 > 100 µM | CCRF-CEM 40.9 µM

COc1ccc(N2C(=O)C3c4[nH]c5ccccc5c4C4CCCCC4C3C2=O)cc1 (stereo unspecified)
inactive: CAKI-1 51.3 µM | NCI-H226 27.4 µM | SNB-19 50.6 µM | OVCAR-8 11 µM | OVCAR-4 5.4 µM | SF-539 14.5 µM | SR 11.7 µM | ACHN 22.5 µM | OVCAR-3 > 100 µM | SK-MEL-2 16.6 µM | EKVX 17.3 µM | NCI-H460 19.5 µM | UACC-62 10.3 µM | LOX IMVI 20 µM | 786-0 11.1 µM | A549 18.3 µM | OVCAR-5 > 100 µM | CCRF-CEM 11.9 µM

CC(=O)Nc1ccc(/C=c2\sc3nnc(CCC(=O)Nc4ccccc4Cl)n3c2=O)cc1
inactive: CAKI-1 > 100 µM | NCI-H226 23.4 µM | SNB-19 38.9 µM | OVCAR-8 > 10 µM | OVCAR-4 20.6 µM | SF-539 23.5 µM | SR 20.3 µM | ACHN > 100 µM | OVCAR-3 21.6 µM | SK-MEL-2 31.9 µM | EKVX > 100 µM | NCI-H460 > 10 µM | UACC-62 23.9 µM | LOX IMVI 17.2 µM | 786-0 21.8 µM | A549 30.4 µM | OVCAR-5 > 100 µM | CCRF-CEM 18.3 µM

COc1cc2c(cc1OC)C1[C@@H](c3ccccc3)OCN1CC2 (stereo partly specified)
inactive: CAKI-1 > 100 µM | NCI-H226 > 100 µM | SNB-19 > 100 µM | OVCAR-8 > 100 µM | OVCAR-4 > 100 µM | SF-539 > 100 µM | SR > 88.7 µM | ACHN > 100 µM | OVCAR-3 > 100 µM | SK-MEL-2 > 100 µM | EKVX > 100 µM | NCI-H460 > 100 µM | UACC-62 > 100 µM | LOX IMVI > 96.2 µM | 786-0 > 100 µM | A549 > 100 µM | OVCAR-5 > 100 µM | CCRF-CEM > 77.6 µM

CCC(C)C1=C(O)[N+]2([O-])Oc3ccc(-c4c(O)c(O)c(-c5ccc(O)cc5)c(OC(C)=O)c4OC(C)=O)cc3OC2(C(C)CC)C(=O)N1O (stereo unspecified)
inactive: CAKI-1 > 50 µM | NCI-H226 > 50 µM | SNB-19 > 50 µM | MDA-N 17.1 µM | OVCAR-8 > 50 µM | OVCAR-4 > 50 µM | SF-539 > 50 µM | SR > 50 µM | ACHN > 50 µM | OVCAR-3 > 50 µM | SK-MEL-2 > 50 µM | EKVX 39.5 µM | NCI-H460 > 50 µM | UACC-62 > 50 µM | LOX IMVI 17.6 µM | 786-0 13.7 µM | A549 > 50 µM | OVCAR-5 > 50 µM | CCRF-CEM 1.88 µM

COc1ccc2nc(C(=O)c3ccccc3)c(C)cc2c1
inactive: CAKI-1 7.91 µM | NCI-H226 23.9 µM | SNB-19 9.16 µM | OVCAR-8 5.31 µM | OVCAR-4 97.1 µM | SF-539 3.05 µM | SR 2.81 µM | ACHN 10 µM | OVCAR-3 10.3 µM | SK-MEL-2 6.27 µM | EKVX 5.26 µM | NCI-H460 7.24 µM | UACC-62 5.26 µM | LOX IMVI 5.43 µM | 786-0 7.03 µM | A549 6.28 µM | OVCAR-5 33.9 µM | CCRF-CEM 4.2 µM

CC1CC2(S(=O)(=O)c3ccccc3)ON1CC2S(=O)(=O)c1ccccc1 (stereo unspecified)
inactive: CAKI-1 > 100 µM | NCI-H226 > 100 µM | SNB-19 > 100 µM | OVCAR-8 > 100 µM | OVCAR-4 > 100 µM | SF-539 42.3 µM | SR > 100 µM | ACHN > 100 µM | OVCAR-3 > 100 µM | SK-MEL-2 > 100 µM | EKVX > 100 µM | NCI-H460 > 100 µM | UACC-62 > 100 µM | LOX IMVI > 100 µM | 786-0 > 100 µM | A549 > 100 µM | OVCAR-5 > 100 µM | CCRF-CEM > 100 µM

COc1ccc(/C(Cl)=C(/c2ccc(O)cc2)c2ccc(OCCN(C)C)cc2)cc1
inactive: CAKI-1 14.3 µM | NCI-H226 16.1 µM | SNB-19 14.1 µM | OVCAR-8 15.5 µM | OVCAR-4 13.9 µM | SF-539 11.5 µM | SR 2.9 µM | ACHN 14.6 µM | OVCAR-3 15.3 µM | SK-MEL-2 10.4 µM | EKVX 16.6 µM | NCI-H460 12.7 µM | UACC-62 16.6 µM | LOX IMVI 2.96 µM | 786-0 6.03 µM | A549 13.8 µM | OVCAR-5 13.3 µM

O=C(O)CC(O)(c1ccccc1C(=O)O)c1cccc2ccccc12 (stereo unspecified)
inactive: CAKI-1 > 100 µM | NCI-H226 > 100 µM | SNB-19 > 100 µM | OVCAR-8 > 100 µM | OVCAR-4 > 100 µM | SF-539 > 100 µM | SR > 100 µM | ACHN > 100 µM | OVCAR-3 > 100 µM | SK-MEL-2 > 100 µM | EKVX > 100 µM | NCI-H460 > 100 µM | UACC-62 > 100 µM | LOX IMVI > 100 µM | 786-0 > 100 µM | A549 > 100 µM | OVCAR-5 > 100 µM | CCRF-CEM > 100 µM
